Consider 9 molecules from ChEMBL document CHEMBL1127209, “Aromatic isosteres as conformational probes for an isoprenyl subunit: application to inhibitors of squalene synthase” (Bioorg Med Chem Lett, 1993).

The target of data set [1] is T1, Squalene synthase (Rattus norvegicus, UniProt Q02769).
T1 sequence (Q02769 whole entry): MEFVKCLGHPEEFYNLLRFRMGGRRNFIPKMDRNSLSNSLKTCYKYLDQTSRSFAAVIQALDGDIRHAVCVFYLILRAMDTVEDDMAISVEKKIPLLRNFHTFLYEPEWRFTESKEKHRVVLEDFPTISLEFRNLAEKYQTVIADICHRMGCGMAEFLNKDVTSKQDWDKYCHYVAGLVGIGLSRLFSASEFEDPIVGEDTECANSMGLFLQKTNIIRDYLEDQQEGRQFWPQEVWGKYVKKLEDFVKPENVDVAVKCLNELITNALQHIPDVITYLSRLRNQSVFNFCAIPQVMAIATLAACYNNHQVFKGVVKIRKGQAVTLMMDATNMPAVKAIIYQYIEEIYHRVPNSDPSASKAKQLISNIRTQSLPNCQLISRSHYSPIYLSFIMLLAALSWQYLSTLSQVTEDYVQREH
Kind of data set: Tested for inhibitory potency against rat liver microsomal squalene synthase. The settings on record: for IC50: read-out: I50.

Substrate in data set [2]: CC(C)=CCC/C(C)=C\CC/C(C)=C/COCP(=O)(O)CP(=O)(O)O
Kind of data set: Tested for Michaelis-Menten constant for squalene synthase.

Take `CC(C)=CCC/C(C)=C/c1ccc(COCP(=O)(O)CP(=O)(O)O)cc1`: the IC50 in data set [1] stood at 125 nM.
Regarding `CC(C)=CCC/C(C)=C/c1cc(C)c(COCP(=O)(O)CP(=O)(O)O)s1`, the IC50 in data set [1] is 5300 nM.
As for `CC(C)=CCC/C(C)=C/c1cc(C)c(COCP(=O)(O)CP(=O)(O)O)o1`, the IC50 in data set [1] stood at 41300 nM.
Regarding `CC(C)=CCC/C(C)=C/c1ccc(COCP(=O)(O)CP(=O)(O)O)s1`, in data set [1], the IC50 came out at 964 nM.
As for `CC(C)=CCC/C(C)=C\CC/C=C/COCP(=O)(O)CP(=O)(O)O`, the IC50 in data set [1] was 165 nM.
Turning to `CC(C)=CCC/C(C)=C\CC/C(C)=C/COCP(=O)(O)CP(=O)(O)O`, in data set [1], the Ki came to 37 nM and the IC50 was 50 nM.
With `CC(C)=CCC/C(C)=C/c1cccc(COCP(=O)(O)CP(=O)(O)O)c1`, the IC50 in data set [1] came out at 5100 nM.
As to `CC(C)=CCC/C(C)=C/c1ccc(COCP(=O)(O)CP(=O)(O)O)c(C)c1`, the IC50 in data set [1] worked out at 13700 nM.

B1: Squalene synthase (Rattus norvegicus), Q02769 (protein)
chain: T1 sequence (Q02769 whole entry)
Regarding B1, the Michaelis-Menten constant (Km) in data set [2] is 12.7 µM.
